The values that follow come from patent US5922775A, “Method of treating malignant tumors with ketone thyroxine analogues having no significant hormonal activity” (priority 1997, dated 1999).

The subject of data set [1] is microtubule protein (MTP). Briefly: Microtubule assembly (MTP polymerization) in vitro, optical test at 350 nm. Type of data set: biochemical, bovine or rabbit (brain). The settings on record: for Percent inhibition of intitial velocity (microtubule assembly in vitro): 10 μM drug, GTP 1 mM, 37° C., averages of duplicate assay; for inhibitory action on MTP assembly (comparison, FIG. 2): drug concentrations up to 20 μM; for order of potency on MTP assembly (FIG. 3): zero to 10 μM drug, lowered GTP concentration (10 μM); for effect of substitution on inhibition of MTP polymerization: compared with DIME. The text has this:
This inhibition is critically dependent on the concentration of GTP. The quantitative correlation between the concentrations of DIME and GTP, under conditions of a linear rate of MTP polymerization, follows Michaelis-Menten kinetics and the inhibition portrays a "mixed" type, where km for GTP and Vmax are altered simultaneously. Chemical analogues of DIME inhibit MTP polymerization parallel to their antitumorigenic action in vivo. The MTP site is one of the early cellular response sites of DIME.
J. Oncol. Abnormal spindle structures could be the result of DIME-MTP interaction or reactions of DIME with components of the microtubule organizing center or with as yet undefined systems sequentially or in concert. Since time-dependent quantitative analysis of the MTP system in situ is unsuitable for initial velocity measurement we adapted the in vitro assembly system of neurotubules as a model for a quantitative analysis of the interaction of DIME with MTP. […] The time course of MTP assembly consists of initiation and propagation and termination steps, Gaskin, et al., 1974, "Turbidimetric studies of the in vitro assembly and disassembly of porcine neurotubules", J. Mol. Biol. 89:737-758. The rate of propagation under defined conditions is sufficiently linear to permit kinetic analysis, that can be evaluated with respect DIME and GTP concentrations. As we show here the inhibition of MTP assembly by DIME occurs in the same range of drug concentration as required to inhibit tumorigonesis in vivo, or to inhibit cell replication or induce eventual cell death; Mendeleyev, et al., 1997. "Structural specificity and tumoricidal action of methyl-3,5-diiodo-4-(4'-methoxyphenoxy)benzoate (DIME)" Int. J. Oncol., 10:689-695. Therefore the DIME-MTP interaction is most probably a component of the apparently pleiotropic cellular mechanism of action of DIME.
Preparation of MTP and an optical test for polymerization was adopted from published methods, Gaskin, et al., 1974, "Turbidimetric studies of the in vitro assembly and disassembly of porcine neurotubules", J. Mol. Biol. 89:737-758; Tiwari, et al., 1993, "A pH and temperature-dependent cycling method that doubles the yield of microtubule protein", Anal. Biochem. 215:96-103. Bovine or rabbit brain was homogenized in an equal volume of ice cold buffer containing 100 mM Pipes/K^+ (pH 7.4), 4 mM EGTA. 1 mM MgCl2, 0.5 mM DTT and 0.1 mM PMSF, and centrifuged at 39,000 g for 1 hour at 4° C. To the supernatant, DMSO (8% final concentration) and GTP (1 mM final concentration) were added, followed by incubation at 37° C. for 30 minutes. Microtubules were pelleted at 100,000 g at 37° C. for 30 minutes. The pellets were incubated on ice for 15 minutes, followed by resuspension in ice cold PEM buffer (100 mM Pipes/K+ (pH 6.9), 1 mM EGTA, 1 mM MgCl2). This warm polymerization and cold depolymerization cycle was repeated once more and the cold, resuspended monomeric MTP (8-10 mg/ml protein) was used for the optical test for polymerization kinetics. Both rabbit or bovine brain yielded identical MTP preparations.
The polymerization reaction was started by the addition of […] of MTP solution (equivalent to 0.8-1.0 mg protein) and initial linear rates of increase in absorbance at 350 nm followed and recorded at 37° C. in a Perkin-Elmer 552 double beam spectrophotometer, equipped with a thermostatically controlled cuvette holder.
It is apparent that the rate of MTP polymerization proceeds in a linear manner, thus conditions for maximal polymerization rates as defined by Berne, B, 1974, "Interpretation of light scattering from long rods", J. Mol. Biol. 89:755-758 appear fulfilled. Therefore it is possible to determine the quantitative correlation between [DIME] and [GTP] by comparing the linear rate in the presence of varying drug and activator concentrations.
The assay system consisted of 240 μl of PEM buffer containing 8% DMSO […]
(added in 3 μl), or solvent control and 0.6 mg MTP (60 μl). […]

In the next data set the test system is human cancer cells. The settings on record: cited from earlier work; for cytostatic / cytocidal activity: cellular assays and in vivo.
Data set [2] deals with human mammary cancer cells (MDA-MB-231). Briefly: Growth of human mammary cancer cells (Table 2 A). Type of data set: cell-based. The settings on record: 2 μM. From the text: (§1) The effects of these three substances on the growth of human mammary cancer cells (MDA-MB-231) and human lung cancer cells (A 549) are summarized in Table 2.
In section (a) of Table 2 the effects of DIME, DIPE and DIPP on the growth of mammary cancer cells, assayed at 48 and 72 hrs, is shown. […] The slightly lesser efficacy of DIPP could be predicted from earlier results obtained with DIME analogs (International Journal of Oncology, 1997, 10, 689-695, FIG. 1) where we have shown that extending the methyl to ethyl substitution (on the carboxyl ester) diminishes cytotoxicity against tumor cells. A similar phenomenon occurs when DIPE is extended to DIPP (i.e. from the ethanone to the propanone).
(§2) (×10^3) Cell number per 2 cm^2

In a further data set the test system is E-ras 20 cells. Conditions: carboxylic acid vs methyl ester; cited from earlier work.
Data set [3] has as its system human lung cancer cells (A 549). The data set can be described thus: Growth of human lung cancer cells (Table 2 B). Type of data set: cell-based.
From the text: as §1, §2

Another data set has as its system cellular esterases. The data set can be described thus: Stability against cellular esterases. The text has this: Moreover, amide analogs of DIME, having an NH2 or a substituted amino group, may be subject to hydrolysis catalyzed by cellular amidases. Since the hydrolysis product of such a hydrolysis is a carboxylic acid, the same decrease in efficacy can result. In order to decrease the chemical lability in the DIME pharmacophore structure, ketone analogues of DIME may be used.
A more detailed kinetic comparison of DIME, DIPE and DIPP on the kinetics of MTP assembly, in a concentration range of zero to 10 μM drug and a louvered GTP concentration (10 μM), is shown in FIG. 3.

Another data set deals with mammary cancer cells. The data set can be described thus: Colony formation by mammary cancer cells (FIG. 1). The class given is cell-based, human. The settings on record: DIME vs DIPE. From the text: FIG. 1 is a graph illustrating the cell killing effects of DIME and DIPE on mammary cancer colonies;
The effect of DIME and DIPE on colony formation by mammary cancer cells is illustrated in FIG. 1, where the results are superimposable, confirming that cytocidal action of DIME and DIPE are indistinguishable.

For data set [4], the system named is non-malignant mouse pituitary adenoma. Conditions: cited from earlier work.
Another data set concerns thyroid iodine uptake. The settings on record: rat, in vivo; cited from earlier work.
The next data set relates to Rana pipiens tadpoles. The settings on record: tadpole metamorphosis; cited from earlier work.

With `COc1ccc(Oc2c(I)cc(C(N)=O)cc2I)cc1` [Compound 7], the “Percent inhibition of intitial velocity (microtubule assembly in vitro)” value (“Percent inhibition of intitial velocity” for short) in data set [1] stood at 43%.
`CCOC(=O)c1cc(I)c(Oc2ccc(OC)cc2)c(I)c1` [Compound 5]: in the data set on human cancer cells, the “cytostatic / cytocidal activity” value was “completely inactive”. In addition, the “Percent inhibition of intitial velocity” value in data set [1] turned out to be 35%.
Consider `COc1ccc(Oc2c(I)cc(C(=O)N(C)C)cc2I)cc1` [Compound 9], for which the “Percent inhibition of intitial velocity” value in [1] is recorded as 6%.
Regarding `CCC(=O)c1cc(I)c(Oc2ccc(OC)cc2)c(I)c1` [DIPP, 1-[3,5-diiodo-4-(4'-methoxyphenoxy)-phenyl]-1-propanone], the Cell number in [2] (48 hours, control 150) is reported as 90 ×10^3 cell number per 2 cm^2 w. Also, the Cell number in [2] (72 hours, control 300) is recorded as 145 ×10^3 cell number per 2 cm^2 w. The “effectiveness relative to DIME and DIPE” value in data set [2] (72 hrs) is given as “about one half as effective as the other two drugs”. Moreover, in data set [1], the “inhibitory action on MTP assembly (comparison, FIG. 2)” value is listed as “similar” and the “order of potency on MTP assembly (FIG. 3)” value was “DIME>DIPE>DIPP”.
As for `COc1ccc(Oc2c(I)cc(C(=O)O)cc2I)cc1` [Compound 6], the “efficacy against tumor cells relative to ester” value in the data set with human cancer cells (carboxylic acid from hydrolysis of the ester) is on record as “much less efficacy against tumor cells than the ester”. Also, in data set [1], the “Percent inhibition of intitial velocity” value is on record as 0% and the “effect of substitution on inhibition of MTP polymerization” value is on record as “completely abolishes the inhibitory effect on MTP polymerization”. In the data set on E-ras 20 cells, the antitumorigenic action entry was “only halves the antitumorigenic action”.
With `COc1ccc(Oc2c(I)cc(C(C)=O)cc2I)cc1` [DIPE, 1-[3,5-diiodo-4-(4'-methoxyphenoxy)-phenyl]-ethanone], the Cell number is given as 55 ×10^3 cell number per 2 cm^2 w in data set [2] (48 hours, control 150); 60 ×10^3 cell number per 2 cm^2 w in data set [2] (72 hours, control 300); 78 ×10^3 cell number per 2 cm^2 w in data set [3] (2 μM, 48 hours, control 110); 81 ×10^3 cell number per 2 cm^2 w in data set [3] (2 μM, 72 hours, control 190); 37 ×10^3 cell number per 2 cm^2 w in data set [3] (5 μM + BNPP 150 μM (esterase inhibitor), 48 hours, control 110); 38 ×10^3 cell number per 2 cm^2 w in data set [3] (5 μM + BNPP 150 μM (esterase inhibitor), 72 hours, control 190). The Cell number in data set [3] (5 μM, 48 hours, control 110) is listed as 38 ×10^3 cell number per 2 cm^2 w; in data set [3] (5 μM, 72 hours, control 190), 40 ×10^3 cell number per 2 cm^2 w. Besides, the “inhibitory action on MTP assembly (comparison, FIG. 2)” value in [1] was “similar”. Also, the “order of potency on MTP assembly (FIG. 3)” value in data set [1] is given as “DIME>DIPE>DIPP”. Moreover, the “effect of esterase inhibitor BNPP on cytocidal action” value in data set [3] (lung cancer cells, with BNPP) is “no supportive effect”. The stability against esterases result in the data set with cellular esterases is “absence of esterase action”. Also, the “effect on colony formation (FIG. 1)” value in the data set on mammary cancer cells is “superimposable”.
As to `NC(Cc1cc(I)c(Oc2cc(I)c(O)c(I)c2)c(I)c1)C(=O)O` (stereo not drawn) [thyroxine], in data set [4], the “inhibition of growth of non-malignant pituitary tumor” value was “depress growth of non-malignant mouse pituitary thyrotropic tumors”. In the data set on thyroid iodine uptake, the “suppression of uptake of iodine by the thyroid” value is “suppresses uptake of iodine by the thyroid”. In addition, the “cell differentiating / metamorphogenic activity” value in the data set on Rana pipiens tadpoles is on record as “induces cell differentiation”.
With `CCCCOc1ccc(Oc2c(I)cc(C(=O)OC)cc2I)cc1` [Compound 4], in [1], the “Percent inhibition of intitial velocity” value is on record as 8% and the “effect of substitution on inhibition of MTP polymerization” value is recorded as “progressively diminishes inhibition of MTP polymerization”.
`COC(=O)c1cc(I)c(Oc2ccc(OC)cc2Cl)c(I)c1` [2'-chloro analogue of DIME]: the “maximal inhibitory action on growth as compared to DIME” value with human cancer cells (human cancer cells) is “about 25%”.
On to `CCCOc1ccc(Oc2c(I)cc(C(=O)OC)cc2I)cc1` [4'-propoxy homologue], for which the “cytostatic / cytocidal activity” value in the data set on human cancer cells was “completely inactive”.
For the compound `CCOc1ccc(Oc2c(I)cc(C(=O)OC)cc2I)cc1` [Compound 2], in the data set with human cancer cells (human cancer cells), the “maximal cytocidal action as compared to DIME” value is reported as 25-30%. Also, in data set [1], the “Percent inhibition of intitial velocity” value worked out at 76% and the “effect of substitution on inhibition of MTP polymerization” value is “progressively diminishes inhibition of MTP polymerization”.
